Earlier results as cited in patent publication US6803034B2, “Compositions and methods for odor and fungal control in ballistic fabric and other protective garments” (Procter & Gamble Company, priority 2000, dated 2004).

Compound	solubility in water
[H]/N=C(\N/C(=N/[H])NCCCCCCNC(=N)NC(=N)Nc1ccc(Cl)cc1)Nc1ccc(Cl)cc1 [chlorhexidine diacetate, 1,1′-hexamethylene bis(5-(p-chlorophenyl)biguanide)]	about 1.8%
[H]/N=C(\N/C(=N/[H])NCCCCCCNC(=N)NC(=N)Nc1ccc(Cl)cc1)Nc1ccc(Cl)cc1 [chlorhexidine digluconate, 1,1′-hexamethylene bis(5-(p-chlorophenyl)biguanide)]	about 70%
